Test results taken from ChEMBL document CHEMBL4819127, “Syntheses and antimicrobial activities of ogipeptin derivatives” (Bioorg Med Chem Lett, 2021).
In brackets after ≈: the same amount, converted by molar mass.

Key:
Escherichia coli = test: Antibacterial activity against Escherichia coli ATCC 47076 assessed as bacterial growth inhibition; assay type: functional
Klebsiella pneumoniae [1] = test: Antibacterial activity against Klebsiella pneumoniae ATCC 10031 assessed as bacterial growth inhibition; assay type: functional
Acinetobacter baumannii [2] = test: Antibacterial activity against Acinetobacter baumannii ATCC 19606 assessed as bacterial growth inhibition; assay type: functional; details: ATCC 19606 = CIP 70.34 = JCM 6841
Pseudomonas aeruginosa [3] = test: Antibacterial activity against Pseudomonas aeruginosa ATCC 27853 assessed as bacterial growth inhibition; assay type: functional
Klebsiella pneumoniae [4] = test: Antibacterial activity against Klebsiella pneumoniae ATCC 700721 assessed as bacterial growth inhibition; assay type: functional
Klebsiella pneumoniae [5] = test: Antibacterial activity against Klebsiella pneumoniae JCM 1662 assessed as bacterial growth inhibition; assay type: functional
Pseudomonas aeruginosa [6] = test: Antibacterial activity against Pseudomonas aeruginosa ATCC 15692 assessed as bacterial growth inhibition; assay type: functional
Klebsiella pneumoniae [7] = test: Antibacterial activity against Klebsiella pneumoniae IHMA 1387833 assessed as bacterial growth inhibition; assay type: functional
Acinetobacter baumannii [8] = test: Antibacterial activity against Acinetobacter baumannii IHMA 1312713 assessed as bacterial growth inhibition; assay type: functional
Pseudomonas aeruginosa [9] = test: Antibacterial activity against Pseudomonas aeruginosa IHMA 1375891 assessed as bacterial growth inhibition; assay type: functional
[10] = (§1) Cytotoxicity against HEK293 cells; assay type: cell-based; details: human, HEK293 cells
HepG2 = test: Cytotoxicity against human HepG2 cells; assay type: functional
[11] = Lipophilicity, logD of compound; assay type: physicochemical; details: octanol/water
HEK293 = test: as §1; assay type: cell-based; details: human, hek293

Question: Which MIC (Escherichia coli) does the source give for C/C=C1\NC(=O)C(NC(=O)CCCCCCCCC)C(O)CNC(=O)C(C(O)CN)NC(=O)C(C(O)CN)NC(=O)[C@H](CCCNC(=N)N)NC(=O)[C@H](CC(C)C)NC(=O)[C@H](CCN)NC1=O (stereo partly drawn) here?
Answer: 2 µg/mL (≈ 2.09 µM)

Question: What about the MIC (Klebsiella pneumoniae [1]) of the same compound?
Answer: 1 µg/mL (≈ 1.05 µM)

Question: What about the MIC (Acinetobacter baumannii [2]) of the same compound?
Answer: 2 µg/mL (≈ 2.09 µM)

Question: What about the MIC (Pseudomonas aeruginosa [3]) of the same compound?
Answer: 4 µg/mL (≈ 4.19 µM)

Question: And the MIC (Klebsiella pneumoniae [4])?
Answer: > 256 µg/mL

Question: And the MIC (Klebsiella pneumoniae [5])?
Answer: > 256 µg/mL

Question: And the MIC (Pseudomonas aeruginosa [6])?
Answer: 64 µg/mL (≈ 67 µM)

Question: And the MIC (Klebsiella pneumoniae [7])?
Answer: > 256 µg/mL

Question: And the MIC (Acinetobacter baumannii [8])?
Answer: > 256 µg/mL

Question: And the MIC (Pseudomonas aeruginosa [9])?
Answer: 128 µg/mL (≈ 134 µM)

Question: What about the CC50 [10] of the same compound?
Answer: > 64 µM

Question: What about the CC50 (HepG2) of the same compound?
Answer: > 64 µM

Question: What about the logD [11] of the same compound?
Answer: 3.756

Question: Which results are given for C/C=C1\NC(=O)C(NC(=O)COc2ccc(/C=C/C(=O)OC(C)(C)C)cc2)C(O)CNC(=O)C(C(O)CN)NC(=O)C(C(O)CN)NC(=O)[C@H](CCCNC(=N)N)NC(=O)[C@H](CC(C)C)NC(=O)[C@H](CCN)NC1=O (stereo partly drawn)?
Answer: MIC (Escherichia coli): 2 µg/mL (≈ 1.88 µM); MIC (Klebsiella pneumoniae [1]): 2 µg/mL (≈ 1.88 µM); MIC (Acinetobacter baumannii [2]): 2 µg/mL (≈ 1.88 µM); MIC (Pseudomonas aeruginosa [3]): 4 µg/mL (≈ 3.77 µM); MIC (Klebsiella pneumoniae [4]): 2 µg/mL (≈ 1.88 µM); MIC (Klebsiella pneumoniae [5]): > 256 µg/mL; MIC (Pseudomonas aeruginosa [6]): 8 µg/mL (≈ 7.54 µM); MIC (Klebsiella pneumoniae [7]): > 256 µg/mL; MIC (Acinetobacter baumannii [8]): 128 µg/mL (≈ 121 µM); MIC (Pseudomonas aeruginosa [9]): 128 µg/mL (≈ 121 µM); CC50 [10]: > 64 µM; CC50 (HepG2): > 64 µM; logD [11]: 2.65

Question: With C/C=C1\NC(=O)C(NC(=O)c2ccc(Oc3ccccc3CCCC)cc2)C(O)CNC(=O)C(C(O)CN)NC(=O)C(C(O)CN)NC(=O)[C@H](CCCNC(=N)N)NC(=O)[C@H](CC(C)C)NC(=O)[C@H](CCN)NC1=O (stereo partly drawn) as the compound, how does the MIC (Escherichia coli) read?
Answer: 2 µg/mL (≈ 1.9 µM)

Question: And the MIC (Klebsiella pneumoniae [1])?
Answer: 4 µg/mL (≈ 3.8 µM)

Question: What about the MIC (Acinetobacter baumannii [2]) of the same compound?
Answer: 2 µg/mL (≈ 1.9 µM)

Question: And the MIC (Pseudomonas aeruginosa [3])?
Answer: 4 µg/mL (≈ 3.8 µM)

Question: And the MIC (Klebsiella pneumoniae [4])?
Answer: 4 µg/mL (≈ 3.8 µM)

Question: What about the MIC (Klebsiella pneumoniae [5]) of the same compound?
Answer: 4 µg/mL (≈ 3.8 µM)

Question: What about the MIC (Pseudomonas aeruginosa [6]) of the same compound?
Answer: 64 µg/mL (≈ 60.8 µM)

Question: What about the MIC (Klebsiella pneumoniae [7]) of the same compound?
Answer: > 256 µg/mL

Question: What about the MIC (Acinetobacter baumannii [8]) of the same compound?
Answer: 8 µg/mL (≈ 7.6 µM)

Question: And the MIC (Pseudomonas aeruginosa [9])?
Answer: 64 µg/mL (≈ 60.8 µM)

Question: What about the CC50 [10] of the same compound?
Answer: > 64 µM

Question: What about the CC50 (HepG2) of the same compound?
Answer: > 64 µM

Question: What about the logD [11] of the same compound?
Answer: 4.984

Question: With C/C=C1\NC(=O)C(NC(=O)c2cc3cc(Cl)ccc3o2)C(O)CNC(=O)C(C(O)CN)NC(=O)C(C(O)CN)NC(=O)[C@H](CCCNC(=N)N)NC(=O)[C@H](CC(C)C)NC(=O)[C@H](CCN)NC1=O (stereo partly drawn) as the compound, how does the MIC (Escherichia coli) read?
Answer: 2 µg/mL (≈ 2.04 µM)

Question: And the MIC (Klebsiella pneumoniae [1])?
Answer: 2 µg/mL (≈ 2.04 µM)

Question: And the MIC (Acinetobacter baumannii [2])?
Answer: 2 µg/mL (≈ 2.04 µM)

Question: What about the MIC (Pseudomonas aeruginosa [3]) of the same compound?
Answer: 4 µg/mL (≈ 4.08 µM)

Question: What about the MIC (Klebsiella pneumoniae [4]) of the same compound?
Answer: 8 µg/mL (≈ 8.17 µM)

Question: What about the MIC (Klebsiella pneumoniae [5]) of the same compound?
Answer: > 256 µg/mL

Question: And the MIC (Pseudomonas aeruginosa [6])?
Answer: > 256 µg/mL

Question: What about the MIC (Klebsiella pneumoniae [7]) of the same compound?
Answer: > 256 µg/mL

Question: What about the MIC (Acinetobacter baumannii [8]) of the same compound?
Answer: 256 µg/mL (≈ 261 µM)

Question: And the MIC (Pseudomonas aeruginosa [9])?
Answer: > 256 µg/mL

Question: What about the CC50 [10] of the same compound?
Answer: > 64 µM

Question: And the CC50 (HepG2)?
Answer: > 64 µM

Question: And the logD [11]?
Answer: 2.829

Question: Which CC50 (HEK293) does the source give for COLISTIN here?
Answer: > 64 µM
